Key:
[1] = system: rats mâles, Sprague Dawley; experiment: Anti-inflammatory activity: carrageenan-induced paw oedema (plethysmography); format: in vivo, rat; conditions: 30 to 60 min before carrageenan, paw volume 3 h after carrageenan
Experimental: Le potentiel antiinflammatoire des composés a été recherché selon un modèle d'inflammation aigue provoquée par injection sous cutanée de carragénine au niveau de la patte postérieure du rat selon une technique inspirée de WINTER et coll. […] J. Phamacol.
Les rats mâles, Sprague Dawley de 200 à 300 g sont randomisés en lots de 10 et reçoivent les substances à tester par administration intra péritonéale 30 à 60 minutes avant l'injection locale au niveau de la patte arrière gauche de 0,1 ml d'une suspension à 0,5 % de Carragénine dans du sérum physiologique stérile.
La patte arrière droite servant de témoin, reçoit une injection de sérum physiologique.
Trois heures après l'injection de la Carragénine, les animaux sont anesthésiés de façon profonde au Narcorem R et le volume des deux pattes arrières mesuré par Pléthysmographie
Les résultats sont exprimés en pourcentage de variation de volume v% : v% =(volume patte gauche - volume patte droite)/(volume patte droite) [formula] l'activité antiinflammatoire AAI% est définie par : [drawing 54]

[2] = system: rat; experiment: Anxiolytic activity: elevated plus maze; format: in vivo; conditions: 60 min before test; for nb total d'entrées: 5 min test, control 14 ± 2; for % du temps passé dans le bras ouvert: control 22 % ± 5 %; for % d'entrées dans le bras ouvert: control 28 % ± 5 %
Experimental: Le potentiel anxiolytique de ces produits a été recherché selon le test "elevated plus maze".
Ce test permet d'étudier le comportement du rat, traité ou non, dans une situation de choix entre un espace clos rassurant ("bras clos") et un espace ouvert générateur d'anxiété ("bras ouvert").
Le test consiste à compter le nombre d'entrées dans chaque bras du labyrinthe durant 5 minutes et à mesurer le temps passé dans le "bras ouvert".
Les rats sont randomisés en lots de 8 et reçoivent les produits à tester par administration intrapéritonéale 60 minutes avant le début du test.

[3] = system: souris; experiment: Analgesic activity: Acetic Acid Writhing test; format: in vivo; conditions: 50 mg/Kg intraperitoneal, 30 min before 0,3 cm³ acetic acid 1% i.p.; control 23 ± 14
Experimental: Le potentiel analgésique de ces produits a été recherché selon le test dit "Acetic Acid Writhing" qui est basé sur le comptage des crampes abdominales induites chez la souris par injection intra péritonéale d'acide acétique (GAIRIN et Coll J. Pharmacol. Exp. Ther 245, 955 (1988))
Les souris randomisées en lots de 10 reçoivent les produits à tester par voie intra péritonéale 30 minutes avant l'administration intra péritonéale de 0,3 cm³ d'acide acétique à 1%
Le nombre de crampes est compté entre la 5ème et 20ème minutes après l'injection d'acide acétique.

Structure (SMILES) | AAI% ([1]; 25 mg/Kg intraperitoneal) | nb total d'entrées ([2]; 100mg/Kg IP) | % du temps passé dans le bras ouvert ([2]; 100mg/Kg IP) | % d'entrées dans le bras ouvert ([2]; 100mg/Kg IP) | AAI% ([1]; 50 mg/Kg intraperitoneal) | nb total d'entrées ([2]; 50 mg/Kg IP) | % du temps passé dans le bras ouvert ([2]; 50 mg/Kg IP) | % d'entrées dans le bras ouvert ([2]; 50 mg/Kg IP) | Nombre de crampes par minute (entre la 5ème et la 20ème minutes) [3]
COC(=O)[C@@H]1Cc2c([nH]c3ccccc23)C2(CCN(C)CC2)N1 [[ 3-METHOXYCARBONYLE 1,2,3,4-TETRAHYDRO-β-CARBOLINE (3 S)]-1-SPIRO-4′- [ 1-METHYL PIPERIDINE]] | 14% | 18 ± 1 | 41 % ± 4% | 44 % ± 3% | – | – | – | – | –
COC(=O)[C@@H]1Cc2c([nH]c3ccccc23)C2(CCCCC2)N1 [[ 3-METHOXYCARBONYLE 1,2,3,4-TETRAHYDRO-β-CARBOLINE (3 S)]-1-SPIRO-CYCLOHEXANE] | – | – | – | – | 14% | 18 ± 2 | 40 % ± 6% | 42 % ± 4% | 1 ± 1

Source: patent EP0466548A1, “1,2,3,4,5,6-Hexahydroazepino[4,5-b]indole and 1,2,3,4-tetrahydro-beta-carbolines, processes for their preparation, and pharmaceutical compositions containing them” (ADIR ET COMPAGNIE, priority 1990, dated 1992)
